Assay results reported in ChEMBL document CHEMBL1201862, “PubChem BioAssay data set” (2004).
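Test compounds were applied to cells in 96-well plates for 48 hours at 5 doses. GI50 marks 50% less growth.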 Active and inactive are the calls of the source. Cut-off read from the data, not from the text of the source: active = GI50 up to about 1.1 µM and inactive = higher.

Experiments:
Assay in all cases: DTP human tumour cell line panel, 48 h
A549 = system: A549
Malme-3M = system: Malme-3M
SK-MEL-28 = system: SK-MEL-28
NCI-H226 = system: NCI-H226
COLO 205 = system: COLO 205
CCRF-CEM = system: CCRF-CEM
SR = system: SR
ACHN = system: ACHN
LOX IMVI = system: LOX IMVI
BT-549 = system: BT-549
OVCAR-5 = system: OVCAR-5
SN12C = system: SN12C
MDA-MB-435 = system: MDA-MB-435
T47D = system: T47D
786-0 = system: 786-0
HCT-15 = system: HCT-15
Hs-578T = system: Hs-578T
MDA-N = system: MDA-N
A498 = system: A498
RPMI-8226 = system: RPMI-8226
HOP-62 = system: HOP-62
EKVX = system: EKVX
IGROV-1 = system: IGROV-1
NCI/ADR-RES = system: NCI/ADR-RES
KM12 = system: KM12
MDA-MB-231 = system: MDA-MB-231
HCT-116 = system: HCT-116
NCI-H522 = system: NCI-H522
UACC-62 = system: UACC-62
NCI-H460 = system: NCI-H460
TK-10 = system: TK-10
SF-295 = system: SF-295
SK-MEL-2 = system: SK-MEL-2
SNB-75 = system: SNB-75
SK-OV-3 = system: SK-OV-3
HT-29 = system: HT-29
MOLT-4 = system: MOLT-4
M14 = system: M14
OVCAR-4 = system: OVCAR-4
MCF7 = system: MCF7
SF-268 = system: SF-268
UO-31 = system: UO-31
K562 = system: K562
SK-MEL-5 = system: SK-MEL-5
SF-539 = system: SF-539
U-251 = system: U-251
NCI-H23 = system: NCI-H23
CAKI-1 = system: CAKI-1
DU-145 = system: DU-145
OVCAR-8 = system: OVCAR-8
SNB-19 = system: SNB-19
RXF 393 = system: RXF 393
HOP-92 = system: HOP-92
OVCAR-3 = system: OVCAR-3
SW-620 = system: SW-620
HCC 2998 = system: HCC 2998
HL-60 = system: HL-60
PC-3 = system: PC-3
UACC-257 = system: UACC-257

With `COc1ccc2c(c1)c(=O)c1c(NCCNCCO)ccc3c(=O)n(CCN(C)C)c(=O)n2c31` the GI50 (A549) was < 0.0255 µM (active), the GI50 (Malme-3M) was 0.0989 µM (active) and the GI50 (SK-MEL-28) was 0.475 µM (active). The GI50 (NCI-H226) was 0.148 µM (active), the GI50 (COLO 205) was 0.0467 µM (active) and the GI50 (CCRF-CEM) was 0.104 µM (active). For the same compound, the GI50 (SR) was < 0.01 µM (active), the GI50 (ACHN) was 0.027 µM (active) and the GI50 (LOX IMVI) was 0.0198 µM (active). For the same compound, the GI50 (BT-549) was 0.615 µM (active), the GI50 (OVCAR-5) was 0.227 µM (active) and the GI50 (SN12C) was < 0.0198 µM (active). For the same compound, the GI50 (MDA-MB-435) was 0.103 µM (active), the GI50 (T47D) was 0.0769 µM (active) and the GI50 (786-0) was < 0.0117 µM (active). The GI50 (HCT-15) was 0.23 µM, the GI50 (Hs-578T) was 0.132 µM (active) and the GI50 (MDA-N) was 0.112 µM (active). The GI50 (A498) was 0.116 µM (active), the GI50 (RPMI-8226) was 0.0912 µM (active) and the GI50 (HOP-62) was 0.109 µM (active). The GI50 (EKVX) was 0.0889 µM (active), the GI50 (IGROV-1) was 0.0279 µM (active) and the GI50 (NCI/ADR-RES) was 1.26 µM (inactive). The GI50 (KM12) was 0.142 µM (active), the GI50 (MDA-MB-231) was 0.132 µM (active) and the GI50 (HCT-116) was < 0.0186 µM (active). For the same compound, the GI50 (NCI-H522) was < 0.0182 µM (active), the GI50 (UACC-62) was 0.0662 µM (active) and the GI50 (NCI-H460) was < 0.0202 µM (active). The GI50 (TK-10) was 0.187 µM (active), the GI50 (SF-295) was 0.0861 µM (active) and the GI50 (SK-MEL-2) was 0.243 µM (active). The GI50 (SNB-75) was 0.0933 µM (active), the GI50 (SK-OV-3) was 0.251 µM (active) and the GI50 (HT-29) was 0.0352 µM (active). The GI50 (MOLT-4) was < 0.01 µM (active), the GI50 (M14) was 0.27 µM (active) and the GI50 (OVCAR-4) was 0.0895 µM (active). The GI50 (MCF7) was < 0.0276 µM (active), the GI50 (SF-268) was 0.103 µM (active) and the GI50 (UO-31) was 0.182 µM (active). The GI50 (K562) was 0.0333 µM (active), the GI50 (SK-MEL-5) was 0.0562 µM (active) and the GI50 (SF-539) was < 0.0265 µM (active). The GI50 (U-251) was < 0.0374 µM (active), the GI50 (NCI-H23) was 0.0637 µM (active) and the GI50 (CAKI-1) was 0.0537 µM (active). The GI50 (DU-145) was < 0.0337 µM (active), the GI50 (OVCAR-8) was 0.0604 µM (active) and the GI50 (SNB-19) was 0.07 µM (active). For the same compound, the GI50 (RXF 393) was 0.114 µM (active), the GI50 (HOP-92) was 0.0766 µM (active) and the GI50 (OVCAR-3) was 0.331 µM (active). For the same compound, the GI50 (SW-620) was < 0.0236 µM (active), the GI50 (HCC 2998) was < 0.0337 µM (active) and the GI50 (HL-60) was > 100 µM (inactive). For the same compound, the GI50 (PC-3) was 0.0836 µM (active) and the GI50 (UACC-257) was 0.261 µM (active).
In the case of `c1ccc2c(c1)c1c3n2-c2cc(on2)C3CCC1` (stereo not drawn), the GI50 (A549) is reported as > 100 µM (inactive), the GI50 (Malme-3M) is reported as > 100 µM (inactive) and the GI50 (SK-MEL-28) is reported as > 100 µM (inactive). The GI50 (NCI-H226) was > 100 µM (inactive), the GI50 (COLO 205) was 98.4 µM (inactive) and the GI50 (CCRF-CEM) was 82.6 µM (inactive). The GI50 (SR) was > 100 µM (inactive), the GI50 (ACHN) was > 100 µM (inactive) and the GI50 (LOX IMVI) was > 100 µM (inactive). The GI50 (BT-549) was > 100 µM (inactive), the GI50 (OVCAR-5) was > 100 µM (inactive) and the GI50 (SN12C) was > 100 µM (inactive). For the same compound, the GI50 (MDA-MB-435) was > 100 µM (inactive), the GI50 (T47D) was > 100 µM (inactive) and the GI50 (786-0) was > 100 µM (inactive). The GI50 (HCT-15) was > 100 µM, the GI50 (Hs-578T) was > 100 µM (inactive) and the GI50 (MDA-N) was > 100 µM (inactive). For the same compound, the GI50 (A498) was > 100 µM (inactive), the GI50 (RPMI-8226) was > 100 µM (inactive) and the GI50 (HOP-62) was > 100 µM (inactive). For the same compound, the GI50 (EKVX) was > 100 µM (inactive), the GI50 (IGROV-1) was > 100 µM (inactive) and the GI50 (NCI/ADR-RES) was > 100 µM (inactive). For the same compound, the GI50 (KM12) was > 100 µM (inactive), the GI50 (MDA-MB-231) was > 100 µM (inactive) and the GI50 (HCT-116) was > 100 µM (inactive). The GI50 (NCI-H522) was > 100 µM (inactive), the GI50 (UACC-62) was > 100 µM (inactive) and the GI50 (NCI-H460) was > 100 µM (inactive). For the same compound, the GI50 (TK-10) was > 100 µM (inactive), the GI50 (SF-295) was > 100 µM (inactive) and the GI50 (SK-MEL-2) was > 100 µM (inactive). The GI50 (SNB-75) was > 100 µM (inactive), the GI50 (SK-OV-3) was > 100 µM (inactive) and the GI50 (HT-29) was > 100 µM (inactive). For the same compound, the GI50 (MOLT-4) was 70.1 µM (inactive), the GI50 (M14) was > 100 µM (inactive) and the GI50 (OVCAR-4) was > 100 µM (inactive). For the same compound, the GI50 (MCF7) was > 100 µM (inactive), the GI50 (SF-268) was > 100 µM (inactive) and the GI50 (UO-31) was > 100 µM (inactive). The GI50 (K562) was > 100 µM (inactive), the GI50 (SK-MEL-5) was > 100 µM (inactive) and the GI50 (SF-539) was > 100 µM (inactive). For the same compound, the GI50 (U-251) was > 100 µM (inactive), the GI50 (NCI-H23) was > 100 µM (inactive) and the GI50 (CAKI-1) was > 100 µM (inactive). The GI50 (DU-145) was > 100 µM (inactive), the GI50 (OVCAR-8) was > 100 µM (inactive) and the GI50 (SNB-19) was > 100 µM (inactive). For the same compound, the GI50 (RXF 393) was > 100 µM (inactive), the GI50 (HOP-92) was > 100 µM (inactive) and the GI50 (OVCAR-3) was > 100 µM (inactive). For the same compound, the GI50 (SW-620) was > 100 µM (inactive), the GI50 (HCC 2998) was > 100 µM (inactive) and the GI50 (HL-60) was > 100 µM (inactive). For the same compound, the GI50 (PC-3) was > 100 µM (inactive) and the GI50 (UACC-257) was > 100 µM (inactive).
